Data on 20 compounds can be found in ChEMBL document CHEMBL4251590, “Novel vanillin derivatives: Synthesis, anti-oxidant, DNA and cellular protection properties” (Eur J Med Chem, 2018).

A short description of data set [1]: Antioxidant activity assessed as ferric ion reducing activity by measuring trolox equivalents using Fe3+-TPTZ after 30 mins by FRAP assay. The data set is classed as functional.
Data set [2] can be described thus: Antioxidant activity assessed as trolox equivalents of AAPH-induced radical scavenging activity pretreated for 30 mins followed by […] challenge measured every 2 mins for 2 hrs by ORAC-FL assay. The data set is classed as functional.
The nature of data set [3]: Antioxidant activity assessed as DPPH radical scavenging activity after 30 mins. The data set is classed as functional. (In general: DPPH is a stable violet radical that fades when it is reduced.)
Data set [4] has as its system DNA. Kind of data set: Antioxidant activity assessed as protection against AAPH-induced DNA damage in Escherichia coli plasmid pbr322 DNA after 1 hr by agarose gel electrophoresis method. Format: functional.
Data set [5] in a line: Antioxidant activity assessed as DPPH radical scavenging activity up to 250 uM after 30 mins. The data set is classed as functional.
The subject of data set [6] is SH-SY5Y. Kind of data set: Cytoprotective activity against H2O2-induced oxidative damage in human SH-SY5Y cells up to 800 uM preincubated for 24 hrs followed by H2O2 addition and measured after 24 hrs by MTT assay. The data set is classed as functional, cell-based. (In general: Tetrazolium assays rely on reduction of a dye to a coloured formazan, in cell work by metabolically active cells.)

The test system of data set [7] is DNA. Kind of data set: Antioxidant activity assessed as protection against AAPH-induced DNA damage in Escherichia coli plasmid pbr322 DNA assessed as DNA intensity level at 0.65 uM after 1 hr by agarose gel electrophoresis method (reference value: 0%). The data set is classed as functional.
The subject of data set [8] is DNA. Kind of data set: Antioxidant activity assessed as protection against AAPH-induced DNA damage in Escherichia coli plasmid pbr322 DNA assessed as DNA intensity level at 0.33 uM after 1 hr by agarose gel electrophoresis method (reference value: 0%). The data set is classed as functional.
Data set [9] deals with DNA. Briefly: Antioxidant activity assessed as protection against AAPH-induced DNA damage in Escherichia coli plasmid pbr322 DNA assessed as DNA intensity level at 0.11 uM after 1 hr by agarose gel electrophoresis method (reference value: 0%). The data set is classed as functional.
The test system of data set [10] is DNA. Kind of data set: Antioxidant activity assessed as protection against AAPH-induced DNA damage in Escherichia coli plasmid pbr322 DNA assessed as DNA intensity level at 4 uM after 1 hr by agarose gel electrophoresis method (reference value: 0%). Format: functional.
The test system of data set [11] is SH-SY5Y. Kind of data set: Cytotoxicity against human SH-SY5Y cells up to 20 uM incubated for 24 hrs by MTT assay. The data set is classed as cell-based.
Data set [12] relates to DNA. Briefly: Antioxidant activity assessed as protection against AAPH-induced DNA damage in Escherichia coli plasmid pbr322 DNA assessed as DNA intensity level at 2.6 uM after 1 hr by agarose gel electrophoresis method (reference value: 0%). Format: functional.
In data set [13] the test system is SH-SY5Y. Kind of data set: Cytoprotective activity against H2O2-induced oxidative damage in human SH-SY5Y cells at 0.1 uM preincubated for 24 hrs followed by H2O2 addition and measured after 24 hrs by MTT assay. Format: functional.
Data set [14] has as its system SH-SY5Y. Kind of data set: Cytoprotective activity against H2O2-induced oxidative damage in human SH-SY5Y cells at 10 uM preincubated for 24 hrs followed by H2O2 addition and measured after 24 hrs by MTT assay. The data set is classed as functional.
In data set [15] the test system is DNA. Briefly: Antioxidant activity assessed as protection against AAPH-induced DNA damage in Escherichia coli plasmid pbr322 DNA assessed as DNA intensity level at 1 uM after 1 hr by agarose gel electrophoresis method (reference value: 0%). The data set is classed as functional.
Data set [16] deals with SH-SY5Y. Briefly: Cytoprotective activity against H2O2-induced oxidative damage in human SH-SY5Y cells at 5 uM preincubated for 24 hrs followed by H2O2 addition and measured after 24 hrs by MTT assay. The data set is classed as functional.
The test system of data set [17] is SH-SY5Y. Kind of data set: Cytotoxicity against human SH-SY5Y cells up to 1 mM incubated for 24 hrs by MTT assay. Format: cell-based.
The test system of data set [18] is SH-SY5Y. Briefly: Cytoprotective activity against H2O2-induced oxidative damage in human SH-SY5Y cells at 200 uM preincubated for 24 hrs followed by H2O2 addition and measured after 24 hrs by MTT assay. The data set is classed as functional.

pIC50: −log10 of the molar value. Activity calls are given as the source filed them. The rule behind the calls is not given here.

Regarding `COc1cc(CN(Cc2ccccc2)Cc2ccc(O)c(OC)c2)ccc1O`, the Activity in data set [1] was 0.55 equiv; in data set [2], 5.34 equiv. In addition, the pIC50 was 4.53 in data set [3] and 5.42 in data set [4].
Regarding `COc1cc(CN(CCO)Cc2ccc(O)c(OC)c2)ccc1O`, the Activity in [1] was found to be 0.62 equiv. Also, in data set [3], the pIC50 was 4.89.
With `COc1cc(CNCc2ccccc2)ccc1O`, the Activity came out at 0.16 equiv in [1] and 3.16 equiv in data set [2]. For the same compound, the figures for the pIC50 in [3] and in data set [4] were 3.97 and 5.39, respectively.
Take `COc1cc(CN(CCCCCO)Cc2ccc(O)c(OC)c2)ccc1O`: the Activity in data set [1] is 0.63 equiv. Further, the pIC50 in data set [3] was 4.62.
The corresponding values for `COc1cc(CN(CCCO)Cc2cc(OC)c(O)c(OC)c2)cc(OC)c1O` are 1.14 equiv and 4.91.
The corresponding values for `c1ccc(CN(Cc2ccccc2)c2ccc(N(Cc3ccccc3)Cc3ccccc3)cc2)cc1` are 2.81 equiv and 3.84.
For the compound `COc1cc(/C=N/Cc2ccccc2)ccc1O`, the results for the Activity in [1] and in data set [2] were 0.06 equiv and 1.85 equiv, respectively. The pIC50 in data set [3] is 3.60; in data set [4], 5.42.
Turning to `COc1cc(CN(CCCN)Cc2ccc(O)c(OC)c2)ccc1O`, the Activity in data set [1] is 0.28 equiv; in data set [2] it was 4.08 equiv. Besides, in [5], the result was inactive. For the same compound, in data set [4], the pIC50 was 4.21.
Consider `COc1cc(CN(CCCCO)Cc2ccc(O)c(OC)c2)ccc1O`, for which, in data set [1], the Activity came out at 0.62 equiv. In addition, in data set [3], the negative-log IC50 (pIC50) was 4.68.
On the same counts, the results for `COc1cc(CN(Cc2ccc(O)c(OC)c2)[C@H]2CC[C@H](N(Cc3ccc(O)c(OC)c3)Cc3ccc(O)c(OC)c3)CC2)ccc1O` are 0.56 equiv and 3.86.
Regarding `COc1cc(C=O)ccc1O` [VANILLIN], the Activity was found to be 0.11 equiv in [1] and 2.19 equiv in [2]. Further, in data set [6], the outcome was inactive. Also, the pIC50 in [3] was 2.39; in data set [4], 5.25.
Take `COc1cc(CN(CCCCCCO)Cc2ccc(O)c(OC)c2)ccc1O`: in [1], the Activity worked out at 0.64 equiv. The pIC50 in data set [3] was 4.65.
On to `COc1cccc(CN(Cc2cccc(OC)c2)c2ccc(N(Cc3cccc(OC)c3)Cc3cccc(OC)c3)cc2)c1`, for which the Activity in data set [1] was 2.54 equiv. Moreover, the outcome in data set [5] was inactive. The pIC50 in [4] was 4.87.
With `Oc1ccc(CN(Cc2ccc(O)cc2)c2ccc(N(Cc3ccc(O)cc3)Cc3ccc(O)cc3)cc2)cc1`, the Activity in data set [1] was determined as 2.78 equiv. For the same compound, the pIC50 in data set [3] is 4.01.
As to `COc1cc(CN(Cc2ccc(O)c(OC)c2)c2ccc(N(Cc3ccc(O)c(OC)c3)Cc3ccc(O)c(OC)c3)cc2)ccc1O`, the Activity in data set [1] is 5.29 equiv; in [7] it was 59.7%; in data set [8], 25.1%; in data set [9] it was 15.8%; in data set [10], 96.1%; in [11], “Non-Toxic”. The Activity in data set [2] worked out at 20.4 equiv; in data set [12], 90.5%; in [13], 8%; in [14], 30%; in [15], 81.9%. For the same compound, the pIC50 in data set [3] is 5.24; in [4], 6.22.
Regarding `CCCCN(Cc1ccc(O)c(OC)c1)Cc1ccc(O)c(OC)c1`, in data set [1], the Activity was 0.6 equiv. Besides, in data set [3], the pIC50 is 4.66.
As for `COc1cc(CN(CCCO)Cc2ccc(O)c(OC)c2)ccc1O`, the Activity in data set [1] is 0.68 equiv; in [16], 6%; in data set [17], “Non-Toxic”; in data set [2], 6.02 equiv; in data set [18], 20%. Besides, the pIC50 was 4.86 in data set [3] and 5.44 in [4].
Regarding `COc1cc(CN(Cc2ccccc2)Cc2cc(OC)c(O)c(OC)c2)cc(OC)c1O`, in [1], the Activity came out at 1.11 equiv. In addition, the pIC50 in data set [3] was 4.81.
For the compound `COc1cc(CN(CCCN(Cc2ccc(O)c(OC)c2)Cc2ccc(O)c(OC)c2)Cc2ccc(O)c(OC)c2)ccc1O`, the results for the Activity in data set [1] and in [2] were 0.74 equiv and 7.54 equiv, respectively. In addition, the result in [5] was inactive. Besides, the pIC50 in [4] is 4.86.
Turning to `COc1cc(C=O)cc(OC)c1O` [SYRINGALDEHYDE], the Activity in data set [1] was found to be 0.93 equiv; in data set [2] it was 1.45 equiv. Also, the values for the pIC50 in data set [3] and in data set [4] were 2.94 and 5.02, respectively.

What is called pIC50 is −log10 of the IC50, conventionally taken in molar units.
